The IC50 is the concentration at which inhibition is half-maximal. In general, bioavailability refers to dose-corrected exposure relative to a reference, in per cent. Low values mean little systemic uptake, high ones much systemic uptake. The AUC is concentration integrated over time. Low readings indicate low exposure, high ones high exposure.

Data on nine molecules can be found in patent US8716478B2, “Boron-containing small molecules” (Anacor Pharmaceuticals, Inc., priority 2010, dated 2014).

For data set [1], the system named is Schistosoma mansoni schistosomula. Description: Schistosoma mansoni schistosomula phenotypic screen. To be noted: for Schistosomula (juvenile infective form) worm screen phenotype, 24 h: Second Set, 5 uM; for phenotypes caused by positive control compounds in schistosomula: positive controls. The source says: (§1) Puerto Rican isolates of S. mansoni using Biomphalaria glabrata snails and golden hamsters as intermediate and definitive hosts, respectively, were maintained and handled in the University of California-San Francisco Sandler Center for Tropical Medicine. Patent B. glabrata snails (6-8 weeks after exposure to 5-10 infectious miracidia) were induced to shed infective larvae (cercariae) under light stimulus into the surrounding water. Cercariae were washed in rounds of ice-cold water and concentrated through and over sieves of varying pore sizes. They were then mechanically sheared (separation of heads from tails) as described in Colley D G, et al. Exp Parasitol 1974, 35:44-51, in ice-cold Incomplete Medium 169 (as described in Basch P F. J Parasitol 1981, 67:179-185, minus FBS and antibiotics) by passing 15 times through a double headed 22-gauge syringe needle connected to two 10 mL syringes. The resulting cercarial heads (schistosomula) were separated from their tails by swirling in a petri dish. Concentrated schistosomula were added to a sterile 1.5 mL centrifuge tube and allowed to settle over ice. Schistosomula were transferred to a sterile environment and washed 4 times in Incomplete Medium 169 prior to plating.
(§2) Two sets of screening were performed. In the first set, compounds were screened against schistosomula and observations were made at 24 hours, 2 days, 3 days, 4 days, and 6 days. In the second set, compounds were screened against schistosomula with observations at 24 hours, 2 days, 3 days, and 4 days and adult worms at 7 hours, 24 hours, 4 days, and 6 days.
Plates contain 200 schistosomula/well in […] complete Basch medium and were maintained at 37° C. in a 5% CO2 atmosphere. All compounds were tested in duplicate with at least two experimental replicates. Compounds and control compounds were added to the plates using the Biomek FXp using 96-well disposable tips. Final concentration of DMSO in each well was 0.5%.
(§3) A semi-quantitative and controlled nomenclature for phenotypes that can arise as a result of compound insult to both schistosomula and adults was utilized (Abdulla M H, et al., PLoS Negl Trop Dis 2009, 3:e478). Phenotypes were recorded by visual inspection and on a flexible time basis but at least at 24 h and 4 day time-points in the case of large scale screening. […] To help eliminate bias, two screen analysts scored phenotypes ‘blind’ both to knowledge of the contents of each screening plate and the phenotypes scored by his/her colleague. Upon completing their individual assessments, each analyst's ‘hit sheet’ was then compared to derive a ‘consensus hit sheet’. Discrepancies in analysts' hit sheets were re-evaluated under the microscope to eventually make a consensus hit call.
(§4) Hyper-coiled and coiled represent a verbal description of the visual phenotype as compared to the DMSO control. The + and ++ and +++ means more of the phenotype which preceded it. The − means less of the phenotype which preceded it. Results

Data set [2] has as its system Schistosoma mansoni adult worms. The experiment in a line: Schistosoma mansoni adult worm phenotypic screen. To be noted: for phenotypes caused by positive control compounds in adult worms: positive controls.
Source text: as §1, §2
Given the delicacy and size (0.5-1.5 cm in length) of this stage all operations were performed manually by the Sandler Center. 24-well plates were set up with compound (final DMSO concentration=0.5%) containing approximately 5 pairs of worms (S. mansoni has separate sexes) in 2 mL complete Basch medium per well. Plates were maintained at 37° C. in a 5% CO2 atmosphere. All compounds were tested in duplicate with at least two experimental replicates.
as §3, §4

Another data set has as its system TNF-α. The experiment in a line: In vivo TNF-α release in LPS treated mice. Details: species or system Swiss Webster mice. As for the experimental part: In vivo TNF-α release was measured in Swiss Webster mice, 10/group. Animals were dosed via oral gavage with drug 1% CMC suspension. Thirty minutes later LPS, 1.5 mg/kg was administered by intraperitoneal injection. Ninety minutes later animals were sacrificed, blood was collected by exsangination and serum prepared for analysis. TNF-α concentration was assessed by ELISA, non-drug treated animals had TNF-α levels 1000-3000 pg/mL. 6-(1-Hydroxy-1,3-dihydrobenzo[c][1,2]oxaborol-5-yloxy)-2-(2-isopropoxyethoxy)nicotinonitrile (D140) and 6-(1-hydroxy-1,3-dihydrobenzo[c][1,2]oxaborol-5-yloxy)-2-(4-oxopentyloxy)nicotinonitrile (D141) are disclosed in U.S. patent application Ser. No. 12/399,015, filed Mar. 5, 2009.

A further data set has as its system human PDE4 enzyme. Description: Phosphodiesterase 4 (PDE4) inhibition, semi-purified enzyme from human U937 cells. In kind it is biochemical.
In data set [3] the test system is TNF-α in peripheral blood mononuclear cells (PBMCs). The experiment in a line: TNF-α inhibition in LPS-stimulated peripheral blood mononuclear cells. Type of data set: cell-based. To be noted: PBMC. The method, then:
Peripheral blood mononuclear cells (PBMCs) pooled from 10-20 donors were obtained from a local blood bank, ficoll gradient purified, and stored frozen in liquid nitrogen. Cells were thawed and seeded into 96-well plates at 5×10^5 cells/well in RPMI 1640 with 10% heat-inactivated fetal calf serum (MediaTech, Inc, Hearndon, Va., USA), Test articles were evaluated at the indicated concentrations in 150 μL media containing <2% DMSO, final, with stimulant and PBMCs. Cells were stimulated with lipopolysaccharide (LPS, phenol-extract from E. coli, Sigma-Aldrich, St. Louis, Mo.) at 1 μg/mL. Stimulation was with LPS for 24 h to measure TNF-α. Cytokines in supernatants were analyzed with a FACSArray flow cytometer (BD Biosciences, San Jose, Calif., USA) using the BD Cytometric Bead Array (CBA) Flex Set (BD Biosciences). IC50 values were calculated using the four parameter logistic equation.

The nature of data set [4]: Pharmacokinetics and oral bioavailability after IV and PO dosing. To be noted: plasma; for bioavailability / AUC: female, CD-1, mouse; for bioavailability: po; for AUC: 10 mg/kg oral suspension dose; for clearance: mouse, 5 mg/kg, female CD-1 mice, intravenous. In kind it is in vivo, female CD-1 mice. As for the experimental part:
The objective of this study was to evaluate the pharmacokinetics and oral bioavailability of PDE4 inhibitors following intravenous (IV) administration and oral (PO) doses in female CD-1 mice.
After dosing, blood samples were collected through 24 h, twice from each animal at specific times (3 mice/time point), into microcentrifuge tubes containing K2EDTA (anticoagulant), stored on wet ice and processed for plasma. The plasma samples were analyzed for concentrations of parent compound by LC/MS/MS using an internal standard/peak area method. Pharmacokinetic analysis of the mean plasma concentration-time profiles following IV and PO administration was performed.
[…] Dosing solutions for intravenous administration were prepared in 55% PEG300/25% PG/20% water. Oral dosing used a suspension prepared in 1% CMC in water with 0.1% Tween 80.
After dosing, blood samples were collected through 24 h, twice from each animal via retro-orbital bleed (˜0.1 mL, 1st time point) or cardiac puncture (˜0.6 mL, 2nd time point) at specific times (3 mice/time point), into microcentrifuge tubes containing K2EDTA (anticoagulant) and stored on wet ice prior to processing.
Plasma was prepared by centrifugation of blood samples for 6 min at approximately 2000×g or 6000 rpm at 4° C. All processed plasma samples (˜50 μL and 300 μL) were transferred to analysis tubes, placed on dry ice immediately and later stored at −80° C. until analysis for concentrations of experimental compound by LC/MS/MS.
Mouse IV clearance, Mouse Oral AUC and Oral Bioavailability are provided below. 6-(1-Hydroxy-1,3-dihydrobenzo[c][1,2]oxaborol-5-yloxy)-2-(2-isopropoxyethoxy)nicotinonitrile (D140) and 6-(1-hydroxy-1,3-dihydrobenzo[c][1,2]oxaborol-5-yloxy)-2-(4-oxopentyloxy)nicotinonitrile (D141) are disclosed in U.S. patent application Ser. No. 12/399,015, filed Mar. 5, 2009.

Setting [5] is: under similar conditions, read-out: PDE4 IC50 value.
Setting [6] is: under similar conditions, read-out: TNF-α IC50 value.

Where two headings read alike, the source gives them in different places.

With `N#Cc1ccc(Oc2ccc3c(c2)COB3O)nc1OC1CCCC1` [2-Cyclopentyloxy-6-(1-hydroxy-1,3-dihydro-benzo[c][1,2]oxaborol-5-yloxy)-nicotinonitrile], the “Schistosomula (juvenile infective form) worm screen phenotype, 24 h” value in data set [1] (24 h) is given as “R, O+”. For the same molecule, the “Adult worm screen phenotype, 7 h” value in data set [2] (5 uM) was “O+”. Moreover, the “Adult worm screen phenotype, 24 h” value in data set [2] (5 uM, 24 h) is on record as “O−”.

For `N#Cc1ccc(Oc2ccc3c(c2)COB3O)nc1` [6-(1-hydroxy-1,3-dihydrobenzo[c][1,2]oxaborol-5-yloxy)nicotinonitrile], in data set [1] (24 h), the “Schistosomula (juvenile infective form) worm screen phenotype, 24 h” value is listed as “R−, O,”. The “Adult worm screen phenotype, 7 h” value in data set [2] (5 uM) is on record as “O−”.

Take `COc1nc(Oc2cc3c(cc2F)B(O)OC3)ccc1C#N` [6-(6-Fluoro-1-hydroxy-1,3-dihydrobenzo[c][1,2]oxaborol-5-yloxy)-2-methoxynicotinonitrile]: the “schistosomula phenotype, 24 h” value in data set [1] (First Set, 24 h) is recorded as “O+”. Besides, the “Adult worm screen phenotype, 7 h” value in data set [2] (5 uM) was “O++”.

Consider `CC(C)OCCOc1nc(Oc2ccc3c(c2)COB3O)ccc1C#N` [Compound D140, 6-(1-Hydroxy-1,3-dihydrobenzo[c][1,2]oxaborol-5-yloxy)-2-(2-isopropoxyethoxy)nicotinonitrile], for which the “% Inhibition of TNFa Blood Levels in LPS Treated Mice” value (“% Inhibition of TNFa Blood Levels” below) with TNF-α (Oral Dose 0.3 mg/kg) was determined as 26.4%; with TNF-α (Oral Dose 0.5 mg/kg), 30%; in the data set on TNF-α (Oral Dose 1 mg/kg) it was 50.2%; with TNF-α (Oral Dose 3 mg/kg), 59.35%; with TNF-α (Oral Dose 5 mg/kg), 72%; in the data set on TNF-α (Oral Dose 10 mg/kg) it was 74%. In the data set with TNF-α (Oral Dose 30 mg/kg), the “% Inhibition of TNFa Blood Levels” value is 83.5%. Further, the IC50 with human PDE4 enzyme (setting [5]) is 9 nM; in data set [3] (setting [6]) it was 3.6 nM. Besides, in data set [4], the bioavailability was found to be 24%. This molecule also came in with an AUC in data set [4] of 810 ng·h/mL. In data set [4], this molecule gave a clearance of 56.7 mL/min/kg. Besides, in data set [2] (5 uM), the “Adult worm screen phenotype, 7 h” value is given as “O++”.

As for `CC(=O)CCCOc1nc(Oc2ccc3c(c2)COB3O)ccc1C#N` [Compound D141, 6-(1-hydroxy-1,3-dihydrobenzo[c][1,2]oxaborol-5-yloxy)-2-(4-oxopentyloxy)nicotinonitrile, reference compound], the “% Inhibition of TNFa Blood Levels” value is 36.1% in the data set on TNF-α (Oral Dose 3 mg/kg), 52.4% in the data set with TNF-α (Oral Dose 10 mg/kg) and 67.1% in the data set on TNF-α (Oral Dose 30 mg/kg). For the same molecule, the half-maximal inhibitory concentration (IC50) in the data set on human PDE4 enzyme (setting [5]) is 3.1 nM; in data set [3] (setting [6]) it was 1.2 nM. The molecule further showed a bioavailability in data set [4] of 32%. For the same molecule, the area under the curve (AUC) in data set [4] was found to be 1300 ng·h/mL. This molecule gave a clearance in data set [4] of 43.3 mL/min/kg.

Take `CC(C)OCCOc1nc(Oc2ccc3c(c2)COB3O)c(Cl)cc1C#N` [Compound D230, 5-chloro-6-(1-hydroxy-1,3-dihydrobenzo[c][1,2]oxaborol-5-yloxy)-2-(2-isopropoxyethoxy)nicotinonitrile]: the “% Inhibition of TNFa Blood Levels” value in the data set with TNF-α (Oral Dose 0.1 mg/kg) is listed as 39%; with TNF-α (Oral Dose 0.3 mg/kg), 59%; with TNF-α (Oral Dose 0.5 mg/kg), 55%; with TNF-α (Oral Dose 1 mg/kg), 76%; in the data set with TNF-α (Oral Dose 3 mg/kg), 80%; in the data set with TNF-α (Oral Dose 5 mg/kg), 77%. Further, the “% Inhibition of TNFa Blood Levels” value in the data set with TNF-α (Oral Dose 10 mg/kg) is reported as 77%. In addition, the IC50 stood at 5.2 nM in the data set with human PDE4 enzyme (1 μM cAMP, 20 minutes at 25° C., read-out: PDE4 IC50) and 2.5 nM in data set [3] (PBMCs, LPS 1 μg/mL for 24 h, read-out: Proinflammatory TNF-α IC50). The molecule also came in with a bioavailability in data set [4] of 60%. This molecule showed an AUC in data set [4] of 3000 ng·h/mL. The molecule further had a clearance in data set [4] of 36.7 mL/min/kg.

For the molecule `O=C(C1CCCCC1)N1CC(=O)N2CCc3ccccc3C2C1` (stereo not shown) [PZQ, reference compound], the “phenotypes caused by positive control compounds in schistosomula” value (shortened to “phenotypes caused … in schistosomula”) in data set [1] is “dose-dependent, rapid and severe phenotypes”. For the same molecule, the “phenotypes caused by positive control compounds in adult worms” value (from here on “phenotypes caused … in adult worms”) in data set [2] was “dose-dependent, rapid and severe phenotypes”.

As to `O=C(Nc1ccc([N+](=O)[O-])cc1Cl)c1cc(Cl)ccc1O` [niclosamide, reference compound], in data set [1], the “phenotypes caused … in schistosomula” value is “dose-dependent, rapid and severe phenotypes”. Moreover, the “phenotypes caused … in adult worms” value in data set [2] is “dose-dependent, rapid and severe phenotypes”.

In the case of `O=C(Nc1ccc(Oc2ccc(Cl)cc2)c(Cl)c1)c1cc(I)cc(I)c1O` [rafoxanide, reference compound], in data set [1], the “phenotypes caused … in schistosomula” value is “dose-dependent, rapid and severe phenotypes”. The “phenotypes caused … in adult worms” value in data set [2] is “dose-dependent, rapid and severe phenotypes”.
